Reference: patent US20150005281A1, “PYRIMIDINE-2,4-DIAMINE DERIVATIVES AS KINASE INHIBITORS” (Cellzome Limited, priority 2011, published 2015)
Structures can show the parent of a compound that is named as a salt.

Experiments:
Assay type in all cases: binding
JAK1 = target: T1, JAK1 (Homo sapiens, UniProt P23458); test: Kinobeads assay with immunodetection, JAK1; details: for IC50: Kinobeads assay, mixed Molt4/Ramos lysate, read-out: Inhibition values (IC50) JAK1
T1 construct: endogenous in cells; host or cells: Molt4 (ATCC CRL-1582) and Ramos (ATCC CRL-1596) cells; mixed lysate 1:2
T1 sequence (P23458 whole entry): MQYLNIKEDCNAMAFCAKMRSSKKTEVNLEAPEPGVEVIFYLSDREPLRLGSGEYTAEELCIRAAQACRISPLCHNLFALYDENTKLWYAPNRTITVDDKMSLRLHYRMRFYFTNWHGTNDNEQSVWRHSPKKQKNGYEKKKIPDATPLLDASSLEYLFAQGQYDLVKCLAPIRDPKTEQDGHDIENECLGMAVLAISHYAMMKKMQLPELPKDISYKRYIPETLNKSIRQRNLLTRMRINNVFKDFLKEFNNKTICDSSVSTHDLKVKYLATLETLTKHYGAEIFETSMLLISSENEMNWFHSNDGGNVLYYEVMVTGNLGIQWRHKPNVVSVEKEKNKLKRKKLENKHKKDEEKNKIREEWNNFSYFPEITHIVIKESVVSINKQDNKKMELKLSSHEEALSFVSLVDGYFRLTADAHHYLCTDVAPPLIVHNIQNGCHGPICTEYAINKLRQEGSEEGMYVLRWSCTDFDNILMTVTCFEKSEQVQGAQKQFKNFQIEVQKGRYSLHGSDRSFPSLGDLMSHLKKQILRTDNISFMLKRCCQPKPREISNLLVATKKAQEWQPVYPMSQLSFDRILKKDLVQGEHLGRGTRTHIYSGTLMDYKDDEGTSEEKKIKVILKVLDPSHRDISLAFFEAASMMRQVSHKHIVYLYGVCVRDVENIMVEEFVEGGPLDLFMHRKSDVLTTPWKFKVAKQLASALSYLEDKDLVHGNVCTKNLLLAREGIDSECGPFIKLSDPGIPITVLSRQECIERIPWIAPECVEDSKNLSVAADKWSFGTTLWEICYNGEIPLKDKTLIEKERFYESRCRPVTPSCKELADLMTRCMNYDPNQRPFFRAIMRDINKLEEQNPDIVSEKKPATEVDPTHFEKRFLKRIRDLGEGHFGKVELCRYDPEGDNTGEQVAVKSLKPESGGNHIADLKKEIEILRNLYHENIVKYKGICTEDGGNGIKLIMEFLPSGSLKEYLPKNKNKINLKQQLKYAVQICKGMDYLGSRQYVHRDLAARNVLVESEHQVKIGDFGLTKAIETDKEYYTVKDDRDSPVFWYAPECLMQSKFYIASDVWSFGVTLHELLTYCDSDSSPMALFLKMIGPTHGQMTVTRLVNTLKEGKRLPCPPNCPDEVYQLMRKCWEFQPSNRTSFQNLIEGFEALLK
Method in brief: (§1)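 Competition binding of test compounds against an immobilized aminopyrido-pyrimidine affinity matrix in mixed Molt4/Ramos lysate (1:2, 10 mg/mL protein). Incubation was 3 h in the cold with shaking; kinases captured on the beads were eluted, quantified by antibody dot blot with infrared detection, and IC50s were derived from dose-response curves.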

JAK2 = target: T2, JAK2 (Homo sapiens, UniProt O60674); test: Kinobeads assay with immunodetection, JAK2; details: mixed Molt4/Ramos lysate, read-out: Inhibition values (IC50) JAK2
T2 construct: endogenous in cells; host or cells: Molt4 (ATCC CRL-1582) and Ramos (ATCC CRL-1596) cells; mixed lysate 1:2
T2 sequence (O60674 whole entry): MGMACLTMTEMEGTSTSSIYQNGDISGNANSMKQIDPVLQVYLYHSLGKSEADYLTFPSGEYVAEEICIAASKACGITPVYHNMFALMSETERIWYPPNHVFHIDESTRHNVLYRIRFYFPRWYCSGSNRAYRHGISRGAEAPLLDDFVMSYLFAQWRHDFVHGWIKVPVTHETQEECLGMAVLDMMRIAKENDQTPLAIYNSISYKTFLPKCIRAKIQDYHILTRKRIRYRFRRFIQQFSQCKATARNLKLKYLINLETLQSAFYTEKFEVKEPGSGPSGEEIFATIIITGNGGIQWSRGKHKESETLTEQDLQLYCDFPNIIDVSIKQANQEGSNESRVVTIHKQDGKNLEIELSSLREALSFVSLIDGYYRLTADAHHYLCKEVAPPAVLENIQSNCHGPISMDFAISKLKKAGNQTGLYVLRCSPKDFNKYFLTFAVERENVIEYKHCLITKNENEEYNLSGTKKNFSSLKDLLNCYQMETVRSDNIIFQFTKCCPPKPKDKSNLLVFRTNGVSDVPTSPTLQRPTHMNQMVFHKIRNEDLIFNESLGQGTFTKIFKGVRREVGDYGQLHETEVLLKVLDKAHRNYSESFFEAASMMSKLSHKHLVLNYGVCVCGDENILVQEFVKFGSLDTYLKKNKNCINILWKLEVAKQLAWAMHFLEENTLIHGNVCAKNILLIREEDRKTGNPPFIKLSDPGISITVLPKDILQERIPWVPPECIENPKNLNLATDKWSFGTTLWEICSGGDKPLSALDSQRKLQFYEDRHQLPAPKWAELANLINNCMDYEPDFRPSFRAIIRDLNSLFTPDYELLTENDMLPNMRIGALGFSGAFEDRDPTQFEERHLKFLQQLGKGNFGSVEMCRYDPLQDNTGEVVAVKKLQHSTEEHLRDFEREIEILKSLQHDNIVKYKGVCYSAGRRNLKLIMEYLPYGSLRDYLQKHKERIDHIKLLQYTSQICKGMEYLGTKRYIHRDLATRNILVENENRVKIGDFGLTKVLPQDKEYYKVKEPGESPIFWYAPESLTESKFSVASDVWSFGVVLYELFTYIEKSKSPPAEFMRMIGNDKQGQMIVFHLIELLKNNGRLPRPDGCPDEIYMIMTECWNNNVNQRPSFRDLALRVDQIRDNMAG
Method in brief: as §1

JAK3 = target: T3, JAK3 (Homo sapiens, UniProt P52333); test: Kinobeads assay with immunodetection, JAK3; details: for IC50: Kinobeads assay, mixed Molt4/Ramos lysate, read-out: Inhibition values (IC50) JAK3
T3 construct: endogenous in cells; host or cells: Molt4 (ATCC CRL-1582) and Ramos (ATCC CRL-1596) cells; mixed lysate 1:2
T3 sequence (P52333 1-1124): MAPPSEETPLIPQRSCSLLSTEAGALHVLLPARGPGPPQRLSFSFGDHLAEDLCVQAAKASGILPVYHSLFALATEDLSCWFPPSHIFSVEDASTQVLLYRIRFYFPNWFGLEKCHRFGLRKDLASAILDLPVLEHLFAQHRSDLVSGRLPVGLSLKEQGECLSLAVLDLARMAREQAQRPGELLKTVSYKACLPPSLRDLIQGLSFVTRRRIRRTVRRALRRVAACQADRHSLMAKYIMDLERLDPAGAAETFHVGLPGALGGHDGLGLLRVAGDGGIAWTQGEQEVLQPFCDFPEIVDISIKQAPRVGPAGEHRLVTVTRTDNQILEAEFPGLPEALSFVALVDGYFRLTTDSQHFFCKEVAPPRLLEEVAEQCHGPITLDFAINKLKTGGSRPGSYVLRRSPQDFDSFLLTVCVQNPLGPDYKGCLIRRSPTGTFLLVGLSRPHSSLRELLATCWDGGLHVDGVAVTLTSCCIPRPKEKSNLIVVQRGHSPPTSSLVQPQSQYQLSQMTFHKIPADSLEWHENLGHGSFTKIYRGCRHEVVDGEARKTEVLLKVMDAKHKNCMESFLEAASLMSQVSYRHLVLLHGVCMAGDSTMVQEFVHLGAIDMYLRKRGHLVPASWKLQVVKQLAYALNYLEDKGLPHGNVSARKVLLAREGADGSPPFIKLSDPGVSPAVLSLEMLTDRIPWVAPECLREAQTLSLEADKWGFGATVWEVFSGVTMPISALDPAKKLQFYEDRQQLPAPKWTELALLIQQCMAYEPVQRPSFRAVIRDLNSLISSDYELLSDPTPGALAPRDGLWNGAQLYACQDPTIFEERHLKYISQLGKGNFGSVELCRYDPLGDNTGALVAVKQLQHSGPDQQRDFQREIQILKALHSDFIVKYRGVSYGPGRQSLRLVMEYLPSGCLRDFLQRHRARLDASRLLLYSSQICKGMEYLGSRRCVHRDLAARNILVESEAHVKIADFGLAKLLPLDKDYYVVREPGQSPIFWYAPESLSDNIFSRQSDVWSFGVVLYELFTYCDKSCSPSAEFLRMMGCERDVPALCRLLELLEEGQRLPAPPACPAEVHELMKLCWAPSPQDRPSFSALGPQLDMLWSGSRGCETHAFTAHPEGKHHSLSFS
Method in brief: as §1

TYK2 = target: T4, TYK2 (Homo sapiens, UniProt P29597); test: Kinobeads assay with immunodetection, TYK2; details: for IC50: Kinobeads assay, mixed Molt4/Ramos lysate, read-out: Inhibition values (IC50) Tyk2
T4 construct: endogenous in cells; host or cells: Molt4 (ATCC CRL-1582) and Ramos (ATCC CRL-1596) cells; mixed lysate 1:2
T4 sequence (P29597 whole entry): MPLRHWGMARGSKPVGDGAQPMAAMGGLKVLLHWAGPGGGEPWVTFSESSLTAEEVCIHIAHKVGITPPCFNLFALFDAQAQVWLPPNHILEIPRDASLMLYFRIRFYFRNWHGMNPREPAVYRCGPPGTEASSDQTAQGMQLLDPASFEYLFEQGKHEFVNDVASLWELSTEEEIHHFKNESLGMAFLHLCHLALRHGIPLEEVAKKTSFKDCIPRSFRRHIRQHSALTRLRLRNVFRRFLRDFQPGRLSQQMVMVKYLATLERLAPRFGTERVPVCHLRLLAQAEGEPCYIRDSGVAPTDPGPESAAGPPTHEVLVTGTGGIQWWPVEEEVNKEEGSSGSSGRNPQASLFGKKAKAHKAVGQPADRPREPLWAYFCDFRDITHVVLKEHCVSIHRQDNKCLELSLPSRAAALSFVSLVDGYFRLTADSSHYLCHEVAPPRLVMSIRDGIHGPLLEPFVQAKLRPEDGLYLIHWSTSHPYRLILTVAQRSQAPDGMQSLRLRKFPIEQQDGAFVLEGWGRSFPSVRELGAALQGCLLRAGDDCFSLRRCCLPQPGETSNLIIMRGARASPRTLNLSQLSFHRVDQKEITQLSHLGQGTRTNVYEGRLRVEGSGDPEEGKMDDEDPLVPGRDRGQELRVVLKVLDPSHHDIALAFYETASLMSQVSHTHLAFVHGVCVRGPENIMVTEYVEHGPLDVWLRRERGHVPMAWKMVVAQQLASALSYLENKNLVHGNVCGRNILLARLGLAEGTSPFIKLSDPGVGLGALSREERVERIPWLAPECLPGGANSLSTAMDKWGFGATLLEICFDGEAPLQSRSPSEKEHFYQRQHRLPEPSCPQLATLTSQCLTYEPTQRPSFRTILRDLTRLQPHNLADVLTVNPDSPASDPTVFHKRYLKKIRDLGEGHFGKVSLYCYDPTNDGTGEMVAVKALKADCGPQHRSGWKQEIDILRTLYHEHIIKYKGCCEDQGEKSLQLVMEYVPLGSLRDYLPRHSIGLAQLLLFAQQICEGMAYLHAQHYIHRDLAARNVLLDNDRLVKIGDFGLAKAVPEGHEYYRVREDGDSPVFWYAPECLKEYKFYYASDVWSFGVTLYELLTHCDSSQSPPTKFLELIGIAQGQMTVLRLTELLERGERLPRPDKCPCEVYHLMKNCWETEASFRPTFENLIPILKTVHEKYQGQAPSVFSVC
Method in brief: as §1

Row | Selectivity ratio over JAK2, JAK1 (JAK1) | IC50 (JAK1) | IC50 (JAK2) | IC50 (JAK3) | IC50 (TYK2) | Selectivity ratio over JAK2, Tyk2 (TYK2) | Selectivity ratio over JAK2, JAK3 (JAK3; JAK3 over JAK2) | SMILES
1 | JAK1 = 15 | < 0.1 µM | 0.1 to 1 µM | < 0.1 µM | < 0.1 µM | – | – | Cn1cc(Nc2ncc(Cl)c(NC[C@H]3CCN(C(=O)CC#N)C3)n2)cn1 [Example 58, (R)-3-(3-((5-chloro-2-(1-methyl-1H-pyrazol-4-ylamino)pyrimidin-4-ylamino)methyl)pyrrolidin-1-yl)-3-oxopropanenitrile]
2 | JAK1 = 33 | 0.1 to 1 µM | 1 to 10 µM | 1 to 10 µM | 0.1 to 1 µM | – | – | CN(C)CC(=O)N1CC[C@H](CNc2nc(Nc3cnn(C)c3)ncc2Cl)C1 [Example 59, (R)-1-(3-((5-chloro-2-(1-methyl-1H-pyrazol-4-ylamino)pyrimidin-4-ylamino)methyl)pyrrolidin-1-yl)-2-(dimethylamino)ethanone]
3 | JAK1 = 45 | 0.1 to 1 µM | > 10 µM | 0.1 to 1 µM | 0.1 to 1 µM | – | – | CCN1CCC[C@@H]1CNc1nc(Nc2cnn(C)c2)ncc1Cl [Example 60, (R)-5-chloro-N^4-((1-ethylpyrrolidin-2-yl)methyl)-N^2-(1-methyl-1H-pyrazol-4-yl)pyrimidine-2,4-diamine]
4 | JAK1 = 49 | 0.1 to 1 µM | > 10 µM | 0.1 to 1 µM | > 10 µM | – | – | CCN1CCC[C@H]1CNc1nc(Nc2cnn(C)c2)ncc1Cl [Example 61, (S)-5-chloro-N4-((1-ethylpyrrolidin-2-yl)methyl)-N2-(1-methyl-1H-pyrazol-4-yl)pyrimidine-2,4-diamine]
5 | JAK1 = 23 | 0.1 to 1 µM | > 10 µM | 0.1 to 1 µM | > 10 µM | – | – | CN1CCCC1CNc1nc(Nc2cnn(C)c2)ncc1Cl (centres unmarked) [Example 62, 5-chloro-N^2-(1-methyl-1H-pyrazol-4-yl)-N^4-((1-methylpyrrolidin-2-yl)methyl)pyrimidine-2,4-diamine]
6 | – | 1 to 10 µM | > 10 µM | 1 to 10 µM | 1 to 10 µM | – | – | CNC(=O)Cn1cc(Nc2ncc(Cl)c(NC[C@H]3CCCN3)n2)cn1 [Example 63, (R)-2-(4-(5-chloro-4-(pyrrolidin-2-ylmethylamino)pyrimidin-2-ylamino)-1H-pyrazol-1-yl)-N-methylacetamide]
7 | – | 0.1 to 1 µM | > 10 µM | 1 to 10 µM | 1 to 10 µM | – | – | CN(C)C(=O)Cn1cc(Nc2ncc(Cl)c(NC[C@H]3CCCN3)n2)cn1 [Example 64, (R)-2-(4-(5-chloro-4-(pyrrolidin-2-ylmethylamino)pyrimidin-2-ylamino)-1H-pyrazol-1-yl)-N,N-dimethylacetamide]
8 | – | 1 to 10 µM | > 10 µM | 1 to 10 µM | 1 to 10 µM | – | – | CNC(=O)Cn1cc(Nc2ncc(Cl)c(NC[C@@H]3CCCN3)n2)cn1 [Example 65, (S)-2-(4-(5-chloro-4-(pyrrolidin-2-ylmethylamino)pyrimidin-2-ylamino)-1H-pyrazol-1-yl)-N-methylacetamide]
9 | – | 1 to 10 µM | > 10 µM | 1 to 10 µM | 0.1 to 1 µM | – | – | CN(C)C(=O)Cn1cc(Nc2ncc(Cl)c(NC[C@@H]3CCCN3)n2)cn1 [Example 66, (S)-2-(4-(5-chloro-4-(pyrrolidin-2-ylmethylamino)pyrimidin-2-ylamino)-1H-pyrazol-1-yl)-N,N-dimethylacetamide]
10 | – | < 0.1 µM | < 0.1 µM | < 0.1 µM | < 0.1 µM | Tyk2 = 13 | – | CNC(=O)Cn1cc(Nc2ncc(Cl)c(NC[C@H]3CCCN3S(C)(=O)=O)n2)cn1 [Example 67, (R)-2-(4-(5-chloro-4-((1-(methylsulfonyl)pyrrolidin-2-yl)methylamino)pyrimidin-2-ylamino)-1H-pyrazol-1-yl)-N-methylacetamide]
11 | – | < 0.1 µM | < 0.1 µM | < 0.1 µM | < 0.1 µM | Tyk2 = 13 | – | CN(C)C(=O)Cn1cc(Nc2ncc(Cl)c(NC[C@H]3CCCN3S(C)(=O)=O)n2)cn1 [Example 68, (R)-2-(4-(5-chloro-4-((1-(methylsulfonyl)pyrrolidin-2-yl)methylamino)pyrimidin-2-ylamino)-1H-pyrazol-1-yl)-N,N-dimethylacetamide]
12 | – | < 0.1 µM | 0.1 to 1 µM | < 0.1 µM | < 0.1 µM | – | JAK3 = 44 | CN(C)C(=O)Cn1cc(Nc2ncc(Cl)c(NC[C@@H]3CCCN3S(C)(=O)=O)n2)cn1 [Example 69, (S)-2-(4-(5-chloro-4-((1-(methylsulfonyl)pyrrolidin-2-yl)methylamino)pyrimidin-2-ylamino)-1H-pyrazol-1-yl)-N,N-dimethylacetamide]
13 | – | 1 to 10 µM | > 10 µM | > 10 µM | > 10 µM | – | – | Cn1cc(Nc2ncc(F)c(NC[C@H]3CCCN3)n2)cn1 [Example 70, (R)-5-fluoro-N^2-(1-methyl-1H-pyrazol-4-yl)-N^4-(pyrrolidin-2-ylmethyl)pyrimidine-2,4-diamine Hydrochloride]
14 | – | 1 to 10 µM | > 10 µM | > 10 µM | 1 to 10 µM | – | – | Cn1cc(Nc2ncc(F)c(NC[C@@H]3CCCN3)n2)cn1 [Example 71, (S)-5-fluoro-N^2-(1-methyl-1H-pyrazol-4-yl)-N^4-(pyrrolidin-2-ylmethyl)pyrimidine-2,4-diamine Hydrochloride]
15 | – | 1 to 10 µM | > 10 µM | > 10 µM | > 10 µM | – | – | Cc1cnc(Nc2cnn(C)c2)nc1NC[C@H]1CCCN1 [Example 72, (R)-5-methyl-N^2-(1-methyl-1H-pyrazol-4-yl)-N^4-(pyrrolidin-2-ylmethyl)pyrimidine-2,4-diamine Hydrochloride]
16 | – | 1 to 10 µM | > 10 µM | 1 to 10 µM | 1 to 10 µM | – | – | Cc1cnc(Nc2cnn(C)c2)nc1NC[C@@H]1CCCN1 [Example 73, (S)-5-methyl-N^2-(1-methyl-1H-pyrazol-4-yl)-N^4-(pyrrolidin-2-ylmethyl)pyrimidine-2,4-diamine Hydrochloride]
17 | – | 0.1 to 1 µM | 1 to 10 µM | 0.1 to 1 µM | < 0.1 µM | Tyk2 = 50 | – | Cl.Cn1cc(Nc2ncc(F)c(NC[C@H]3CCCN3S(C)(=O)=O)n2)cn1 [Example 74, (R)-5-fluoro-N^2-(1-methyl-1H-pyrazol-4-yl)-N^4-((1-(methylsulfonyl)pyrrolidin-2-yl)methyl)pyrimidine-2,4-diamine Hydrochloride]
18 | – | < 0.1 µM | 1 to 10 µM | 0.1 to 1 µM | < 0.1 µM | Tyk2 = 28 | – | Cl.Cn1cc(Nc2ncc(F)c(NC[C@@H]3CCCN3S(C)(=O)=O)n2)cn1 [Example 75, (S)-5-fluoro-N2-(1-methyl-1H-pyrazol-4-yl)-N4-((1-(methylsulfonyl)pyrrolidin-2-yl)methyl)pyrimidine-2,4-diamine Hydrochloride]
19 | JAK1 = 26 | < 0.1 µM | 0.1 to 1 µM | < 0.1 µM | < 0.1 µM | – | – | Cc1cnc(Nc2cnn(C)c2)nc1NC[C@H]1CCCN1S(C)(=O)=O [Example 76, (R)-5-methyl-N^2-(1-methyl-1H-pyrazol-4-yl)-N^4-((1-(methylsulfonyl)pyrrolidin-2-yl)methyl)pyrimidine-2,4-diamine]
20 | JAK1 = 28 | < 0.1 µM | 0.1 to 1 µM | < 0.1 µM | < 0.1 µM | – | – | Cc1cnc(Nc2cnn(C)c2)nc1NC[C@@H]1CCCN1S(C)(=O)=O [Example 77, (S)-5-methyl-N^2-(1-methyl-1H-pyrazol-4-yl)-N^4-((1-(methylsulfonyl)pyrrolidin-2-yl)methyl)pyrimidine-2,4-diamine]
